Legend:
GCN2 kinase = GCN2 kinase (Homo sapiens, UniProt Q9P2K8); test: GCN2 enzyme inhibition assay (Transcreener ADP2 fluorescence polarization); format: biochemical; conditions: 280 μM ATP
How it was run: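 4 nM GCN2 + 200 μM (RS)7 + compound (0–8 μM), 10 min preinc.; start with ATP (280 μM final); 1 h, 25 °C; pH 7.5 Tris/NaCl/MgCl2/DTT; ADP FP readout; IC50, Ki(app) via tight-binding fit.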

[1] = biological target: intracellular GCN2 (phosphorylation of the GCN2 substrate eIF2α) (Homo sapiens, UniProt Q9P2K8); test: GCN2 cellular inhibition assay (AlphaScreen SureFire P-eIF2α Ser51, borrelidin-treated U2OS cells); format: cell-based; conditions: biomarker assay, phosphorylated eIF2α Ser51 in borrelidin-treated U2OS cells
How it was run: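 Compound effect on GCN2 is gauged by eIF2α Ser51 phosphorylation in borrelidin-challenged U2OS cells (10 μM, 1 h). Top compound level is 40 μM final.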

[2] = compounds of Formula II, 4 nM GCN2 kinase
[3] = Enzyme activity for compounds of Formula IV, Ki(app), 25° C.

Chain of intracellular GCN2 (phosphorylation of the GCN2 substrate eIF2α) (Q9P2K8 whole entry): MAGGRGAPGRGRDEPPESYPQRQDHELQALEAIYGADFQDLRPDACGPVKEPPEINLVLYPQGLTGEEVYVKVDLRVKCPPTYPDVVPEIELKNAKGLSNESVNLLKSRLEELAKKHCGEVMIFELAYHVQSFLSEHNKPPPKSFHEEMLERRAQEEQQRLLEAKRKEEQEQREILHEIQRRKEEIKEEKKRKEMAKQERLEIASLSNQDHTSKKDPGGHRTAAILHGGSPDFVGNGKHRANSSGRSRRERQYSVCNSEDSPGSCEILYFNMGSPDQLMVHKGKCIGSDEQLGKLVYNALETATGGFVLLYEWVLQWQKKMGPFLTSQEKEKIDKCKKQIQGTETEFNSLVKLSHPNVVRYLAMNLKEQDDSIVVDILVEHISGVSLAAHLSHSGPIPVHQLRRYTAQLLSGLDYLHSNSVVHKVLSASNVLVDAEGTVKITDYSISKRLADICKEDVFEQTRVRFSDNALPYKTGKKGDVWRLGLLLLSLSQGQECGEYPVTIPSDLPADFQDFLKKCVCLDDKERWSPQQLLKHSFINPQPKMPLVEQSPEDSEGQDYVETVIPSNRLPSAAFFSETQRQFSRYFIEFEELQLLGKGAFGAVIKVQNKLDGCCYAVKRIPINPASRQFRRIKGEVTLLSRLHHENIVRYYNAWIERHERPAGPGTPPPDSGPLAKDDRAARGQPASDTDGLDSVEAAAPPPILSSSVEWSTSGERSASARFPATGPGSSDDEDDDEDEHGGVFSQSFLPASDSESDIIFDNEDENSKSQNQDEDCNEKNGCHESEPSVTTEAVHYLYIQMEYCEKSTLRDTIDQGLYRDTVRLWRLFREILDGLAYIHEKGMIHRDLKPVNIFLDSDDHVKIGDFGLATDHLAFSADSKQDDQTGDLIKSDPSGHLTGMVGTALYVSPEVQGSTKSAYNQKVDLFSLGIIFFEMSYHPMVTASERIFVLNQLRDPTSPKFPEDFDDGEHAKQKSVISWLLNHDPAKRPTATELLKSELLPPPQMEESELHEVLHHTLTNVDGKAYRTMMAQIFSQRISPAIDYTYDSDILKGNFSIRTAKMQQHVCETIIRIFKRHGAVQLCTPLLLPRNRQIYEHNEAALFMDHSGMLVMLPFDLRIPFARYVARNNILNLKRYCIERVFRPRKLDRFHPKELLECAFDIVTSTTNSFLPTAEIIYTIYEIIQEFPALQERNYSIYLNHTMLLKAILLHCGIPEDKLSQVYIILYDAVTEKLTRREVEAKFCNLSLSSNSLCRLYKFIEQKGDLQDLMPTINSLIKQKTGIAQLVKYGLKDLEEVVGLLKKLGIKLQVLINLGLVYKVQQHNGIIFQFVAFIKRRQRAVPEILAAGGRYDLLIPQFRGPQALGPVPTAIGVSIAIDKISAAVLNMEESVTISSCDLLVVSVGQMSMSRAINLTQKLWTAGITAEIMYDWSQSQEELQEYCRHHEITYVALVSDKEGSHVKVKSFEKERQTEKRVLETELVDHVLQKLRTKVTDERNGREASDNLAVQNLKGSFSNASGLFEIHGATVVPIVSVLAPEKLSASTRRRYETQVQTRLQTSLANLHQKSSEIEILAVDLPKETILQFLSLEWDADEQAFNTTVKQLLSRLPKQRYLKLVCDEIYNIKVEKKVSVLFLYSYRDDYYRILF
Chain of GCN2 kinase (Q9P2K8 whole entry): as above

Row | SMILES | Ki (GCN2 kinase; [2]) [nM] | IC50 ([1]; compounds of Formula II) [nM] | Ki (GCN2 kinase; [3]) [nM] | IC50 ([1]; compounds of Formula IV) [nM] | IC50 (GCN2 kinase; compounds of Formula IV, 4 nM GCN2 kinase) [nM]
1 | CC1C(CNS(C)(=O)=O)OCCN1c1cc(-c2cnc3ccc(C(F)F)nn23)ncn1 (stereo not shown) [II-346, N-((4-(6-(6-(Difluoromethyl)imidazo[1,2-b]pyridazin-3-yl)pyrimidin-4-yl)-3-methylmorpholin-2-yl)methyl)methanesulfonamide] | 10 to 1000 | > 5000 | – | – | –
2 | CC1C[S+]([O-])CCN1c1cc(-c2cnc3ccc(C(F)F)nn23)ncn1 (single isomer, unassigned) [II-355, 4-(6-(6-(Difluoromethyl)imidazo[1,2-b]pyridazin-3-yl)pyrimidin-4-yl)-3-methylthiomorpholine 1-oxide] | 10 to 1000 | > 5000 | – | – | –
3 | C[C@H]1[C@@H](N=S(C)(C)=O)CCCN1c1cc(-c2cnc3ccc(C(F)F)nn23)ncn1 (single isomer, unassigned) [II-593] | < 10 | < 500 | – | – | –
4 | NS(=O)(=O)NCC1CCCN(c2cc(-c3cnc4ccc(C(F)F)nn34)ncn2)C1 (single isomer, unassigned) [II-277] | < 10 | 500 to 5000 | – | – | –
5 | CC1(C)CN(c2cc(-c3cnc4ccc(C(F)F)nn34)ncn2)C[C@@H](CNS(C)(=O)=O)O1 [II-403, (S)—N-((4-(6-(6-(Difluoromethyl)imidazo[1,2-b]pyridazin-3-yl)pyrimidin-4-yl)-6,6-dimethylmorpholin-2-yl)methyl)methanesulfonamide] | < 10 | < 500 | – | – | –
6 | CC1C(CNS(C)(=O)=O)CCCN1c1cc(-c2cnc3ccc(C(F)F)nn23)ncn1 (stereo not shown) [II-221, N-((1-(6-(6-(Difluoromethyl)imidazo[1,2-b]pyridazin-3-yl)pyrimidin-4-yl)-2-methylpiperidin-3-yl)methyl)methanesulfonamide] | < 10 | < 500 | – | – | –
7 | COC1CC(CNS(C)(=O)=O)CN(c2cc(-c3cnc4ccc(C(F)F)nn34)ncn2)C1 (stereo not shown) [II-198, N-((1-(6-(6-(Difluoromethyl)imidazo[1,2-b]pyridazin-3-yl)pyrimidin-4-yl)-5-methoxypiperidin-3-yl)methyl)methanesulfonamide] | 10 to 1000 | > 5000 | – | – | –
8 | CC1C(CNS(C)(=O)=O)N(C)C(C)CN1c1cc(-c2cnc3ccc(C(F)F)nn23)ncn1 (stereo not shown) [II-448, N-((4-(6-(6-(Difluoromethyl)imidazo[1,2-b]pyridazin-3-yl)pyrimidin-4-yl)-1,3,6-trimethylpiperazin-2-yl)methyl)methanesulfonamide] | < 10 | < 500 | – | – | –
9 | CCC1C(CNS(C)(=O)=O)CCCN1c1cc(-c2cnc3ccc(C(F)F)nn23)ncn1 (stereo not shown) [II-391, N-((1-(6-(6-(Difluoromethyl)imidazo[1,2-b]pyridazin-3-yl)pyrimidin-4-yl)-2-ethylpiperidin-3-yl)methyl)methanesulfonamide] | < 10 | < 500 | – | – | –
10 | CC1CN(c2cc(-c3cnc4ccc(C(F)F)nn34)ncn2)CC(CNS(C)(=O)=O)C1=O (stereo not shown) [II-525, N-((1-(6-(6-(Difluoromethyl)imidazo[1,2-b]pyridazin-3-yl)pyrimidin-4-yl)-5-methyl-4-oxopiperidin-3-yl)methyl)methanesulfonamide] | < 10 | < 500 | – | – | –
11 | O=C1OC2(CC2)[C@@H]2CN(c3cc(-c4cnc5ccc(C(F)(F)F)nn45)ccn3)CCN12 [II-226, (S)-7′-(4-(6-(Trifluoromethyl)imidazo[1,2-b]pyridazin-3-yl)pyridin-2-yl)tetrahydrospiro[cyclopropane-1,1′-oxazolo[3,4-a]pyrazin]-3′(5′H)-one] | 10 to 1000 | 500 to 5000 | – | – | –
12 | CC1C(CNS(C)(=O)=O)N(C)CCN1c1cc(-c2cnc3ccc(C(F)F)nn23)ncn1 (mixture of isomers) [II-312, N-((4-(6-(6-(Difluoromethyl)imidazo[1,2-b]pyridazin-3-yl)pyrimidin-4-yl)-1,3-dimethylpiperazin-2-yl)methyl)methanesulfonamide] | < 10 | < 500 | – | – | –
13 | Cc1cnc(N2CCCC(CNS(C)(=O)=O)C2)cc1-c1cnc2ccc(C(F)F)nn12 (stereo not shown) [II-733, N-((1-(4-(6-(difluoromethyl)imidazo[1,2-b]pyridazin-3-yl)-5-methylpyridin-2-yl)piperidin-3-yl)methyl)methanesulfonamide] | > 1000 | > 5000 | – | – | –

Other lines, results leading:

Row | Ki (GCN2 kinase; [2]) [nM] | IC50 ([1]; compounds of Formula II) [nM] | Ki (GCN2 kinase; [3]) [nM] | IC50 ([1]; compounds of Formula IV) [nM] | IC50 (GCN2 kinase; compounds of Formula IV, 4 nM GCN2 kinase) [nM] | SMILES
14 | – | – | 100 to 1000 | > 5000 | – | CS(C)(=O)=NC1CCCN(c2ccnc(-c3cnc4cnc(C(F)F)cn34)n2)C1 (stereo not shown) [IV-141, ((1-(2-(6-(Difluoromethyl)imidazo[1,2-a]pyrazin-3-yl)pyrimidin-4-yl)piperidin-3-yl)imino)dimethyl-λ^6-sulfanone]
15 | – | – | 10 to 100 | 500 to 5000 | – | FC(F)(F)c1cn2c(-c3nccc(N4CCC(Cc5cn[nH]c5)C4)n3)cnc2cn1 (stereo not shown) [IV-635, 3-(4-(3-((1H-Pyrazol-4-yl)methyl)pyrrolidin-1-yl)pyrimidin-2-yl)-6-(trifluoromethyl)imidazo[1,2-a]pyrazine]
16 | – | – | 100 to 1000 | > 5000 | – | NC(=O)c1ccc(F)c(-c2ccnc(-c3cnc4cnc(C(F)F)cn34)n2)c1 [IV-176, 3-(2-(6-(Difluoromethyl)imidazo[1,2-a]pyrazin-3-yl)pyrimidin-4-yl)-4-fluorobenzamide]
17 | – | – | < 10 | 500 to 5000 | – | CC1CN(c2nccc(-c3cnc4cnc(Cl)cn34)n2)C(C)C(c2cn[nH]c2)N1 (single isomer, unassigned) [IV-407, 6-Chloro-3-(2-(2,5-dimethyl-3-(1H-pyrazol-4-yl)piperazin-1-yl)pyrimidin-4-yl)imidazo[1,2-a]pyrazine]
18 | – | – | > 1000 | > 5000 | – | O=C(N[C@H]1CCCN(c2ccnc(-c3cnc4cnc(C(F)(F)F)cn34)n2)C1)c1cn[nH]c1 [IV-733]
19 | – | – | < 10 | 500 to 5000 | – | Cc1cc(N2CC(C)NC(c3cn[nH]c3)C2C)nc(-c2cnc3cnc(C(F)(F)F)cn23)n1 (single isomer, unassigned) [IV-670, 3-(4-(2,5-Dimethyl-3-(1H-pyrazol-4-yl)piperazin-1-yl)-6-methylpyrimidin-2-yl)-6-(trifluoromethyl)imidazo[1,2-a]pyrazine]
20 | – | – | 100 to 1000 | 500 to 5000 | – | CC(=O)N1CCN(c2ccnc(-c3cnc4cnc(Br)cn34)n2)CC1 [IV-32, 1-(4-(2-(6-Bromoimidazo[1,2-a]pyrazin-3-yl)pyrimidin-4-yl)piperazin-1-yl)ethan-1-one]
21 | – | – | – | 500 to 5000 | 10 to 1000 | C[C@@H]1C[C@H](N=S(C)(C)=O)CN(c2ccnc(-c3cnc4cnc(C(F)F)cn34)n2)C1 [IV-772, (((3S,5R)-1-(2-(6-(difluoromethyl)imidazo[1,2-a]pyrazin-3-yl)pyrimidin-4-yl)-5-methylpiperidin-3-yl)imino)dimethyl-16-sulfanone]
22 | – | – | 100 to 1000 | > 5000 | – | FC(F)c1cn2c(-c3nccc(N4CCCC(c5cscn5)C4)n3)cnc2cn1 (stereo not shown) [IV-174, 4-(1-(2-(6-(Difluoromethyl)imidazo[1,2-a]pyrazin-3-yl)pyrimidin-4-yl)piperidin-3-yl)thiazole]
23 | – | – | < 10 | < 500 | – | CC1CN(c2ccnc(-c3cnc4cnc(C(F)(F)F)cn34)n2)C(C)C(c2c[nH]cn2)O1 (single isomer, unassigned) [IV-639, 2-(1H-Imidazol-4-yl)-3,6-dimethyl-4-(2-(6-(trifluoromethyl)imidazo[1,2-a]pyrazin-3-yl)pyrimidin-4-yl)morpholine]
